Patent US9180088B2, “Fulvestrant formulations” (SCIDOSE, LLC, priority 2008, dated 2015)
Values after ≈ are worked out from the molar mass of the structure shown. Blank lines part the entries; values can stand above or below the compound they belong to.

Legend:
[1] = solubility of fulvestrant in solvents; type: physicochemical
subplanar paw of the rat = assay: rat paw lick test; type: in vivo; conditions: 0.1 ml of solvent system injected on the subplanar paw of the rat
Protocol: In this method 0.1 ml of the solvent system is injected on the subplanar paw of the rat and the irritation is measured by the number of time that rat licks its paw over 15 minutes. This is quite quantitative and the number licks correlate to the irritation of the system.

solubility ([1]; 20 mg/ml Lutrol in PEG 400 (2% Lutrol in PEG 400), organic solvent or mixture, in 20 mg/ml of Lutrol in PEG 400 (2% Lutrol in PEG 400)): 66.7 mg/mL (≈ 110 mM)
solubility ([1]; 20 mg/ml Lutrol in propylene glycol, organic solvent or mixture, in 20 mg/ml of Lutrol in PG): 22.7 mg/mL (≈ 37.4 mM)
solubility ([1]; 1,4-dioxane, organic solvent or mixture, in 1,4 Dioxan): 833 mg/mL (≈ 1370 mM)
solubility ([1]; 10% ethanol/0.9% benzyl alcohol/30% PEG 400 in water (v/v), aqueous with cosolvent or surfactant or cyclodextrin, in 10% Ethanol/0.9% Benzylalcohol/30% PEG 400 in Water (v/v)): 10 mg/mL (≈ 16.5 mM)
solubility ([1]; 20-50 mg/ml Lutrol in dihydrolipoic acid, organic solvent or mixture, in 20-50 mg/ml Lutrol in dihydrolipoic acid): > 350 mg/mL
solubility ([1]; 50% dihydrolipoic acid/50% lipoic acid, organic solvent or mixture, in 50% dihydrolipoic acid/50% lipoic acid): > 350 mg/mL
solubility ([1]; Lutrol/PEG400/propylene glycol blends, organic solvent or mixture, in the Lutrol/PEG400/propylene glycol blends): 50 mg/mL (≈ 82.4 mM)
solubility ([1]; N-methylpyrrolidone, organic solvent or mixture, in N-Methylpyrrolidone): 864 mg/mL (≈ 1420 mM)
solubility ([1]; PEG 400 + propylene glycol (1:1), organic solvent or mixture, in PEG 400 + PG (1:1)): 50 mg/mL
solubility ([1]; PEG-400 (neat), organic solvent or mixture, in PEG-400 (neat)): 22.5 mg/mL (≈ 37.1 mM)
solubility ([1]; aqueous with cosolvent or surfactant or cyclodextrin, in 10% Ethanol/0.9% Benzylalcohol/30% PEG 400/20 mg per ml Lecithin, in Water): 5 mg/mL (≈ 8.24 mM)
solubility ([1]; dihydrolipoic acid, organic solvent or mixture, in Dihydrolipoic acid): > 450 mg/mL
solubility ([1]; ethyl acetate, organic solvent or mixture, in Ethyl acetate): 7.8 mg/mL (≈ 12.9 mM)
solubility ([1]; glycofurol, organic solvent or mixture, in Glycofurol): 400 mg/mL (≈ 659 mM)
solubility of fulvestrant ([1]; in 0.9% Benzyl alcohol in Water): Insoluble
solubility of fulvestrant ([1]; in 2% Benzyl alcohol in Water): Insoluble
solubility of fulvestrant ([1]; in 10% Ethanol): Insoluble
solubility of fulvestrant ([1]; in 10% Ethanol (in water) + PEG 400 (1:1)): Insoluble
solubility of fulvestrant ([1]; in 30% Ethanol (in water)): Insoluble
solubility of fulvestrant ([1]; in 50% Ethanol (in water)): Insoluble
solubility of fulvestrant ([1]; in Aq.PVP K-30 solution (40 mg in 2 ml distil water)): Insoluble
solubility of fulvestrant ([1]; in Cetylalcohol): 20 mg/1 g
solubility of fulvestrant ([1]; in Fat emulsion): Insoluble
solubility of fulvestrant ([1]; in Hydroxy Ethyl Starch (10%)): Insoluble
solubility of fulvestrant ([1]; in Lauryl macrogol - 32 glyceride (Gelucire 44/14 by Gattefosse)): Insoluble
solubility of fulvestrant ([1]; in Lecithin (1%)): Insoluble
solubility of fulvestrant ([1]; in Peanut Oil): Insoluble
solubility of fulvestrant ([1]; in Poloxamer(Lutrol f-68) (2% sol in water)): Insoluble
solubility of fulvestrant ([1]; in Sodium Citrate (30 Mmol)): Insoluble
solubility of fulvestrant ([1]; in TPGS 1000): Insoluble
solubility of fulvestrant ([1]; in Tween 20 (1%)): Insoluble
solubility of fulvestrant ([1]; in Tween 80 (1%)): Insoluble
solubility ([1]; organic solvent or mixture, in 0.7 ml of (20 mg/ml of Lutrol in PEG 400) + 0.3 ml of Propylene Glycol): 50 mg/mL
solubility ([1]; organic solvent or mixture, in 0.8 ml of (20 mg/ml of Lutrol in PEG 400) + 0.2 ml of Propylene Glycol): 50 mg/mL
solubility ([1]; organic solvent or mixture, in 10% Ethanol/0.9% Benzylalcohol in PEG 400 (V/V, QS with PEG 400)): 10 mg/mL (≈ 16.5 mM)
solubility ([1]; propylene glycol (neat), organic solvent or mixture, in Propylene Glycol (neat)): 4 mg/mL (≈ 6.59 mM)
solubility ([1]; t-butanol, organic solvent or mixture, in T-butanol): 194 mg/mL (≈ 320 mM)
Compound: C[C@]12CC[C@@H]3c4ccc(O)cc4C[C@@H](CCCCCCCCC[S+]([O-])CCCC(F)(F)C(F)(F)F)[C@H]3[C@@H]1CC[C@@H]2O (stereo partly drawn) [fulvestrant, 7-alpha-[9-(4,4,5,5,5-pentafluoropentylsulphinyl)nonyl]estra-1,3,5-(10)-triene-3,17-beta-diol]

number of times rat licks its paw in first 15 minutes (subplanar paw of the rat; 15 minutes): Zero lick in first 15 minutes
Compound: Glycofurol [Test # 02]
IRRITABILITY (rating) (subplanar paw of the rat): No Irritation
